{"source": "paper PMC8588048", "about": "“Discovery of Guanidine Derivatives from Buthus martensii Karsch with Metal-Binding and Cholinesterase Inhibition Properties” (Molecules, 2021)", "key": {"AChE": {"molecular_target": "T1, AChE (Electrophorus electricus, UniProt O42275)", "T1 construct": "purchased Sigma-Aldrich (St. Louis, MO, USA)", "T1 sequence (O42275 24-633)": "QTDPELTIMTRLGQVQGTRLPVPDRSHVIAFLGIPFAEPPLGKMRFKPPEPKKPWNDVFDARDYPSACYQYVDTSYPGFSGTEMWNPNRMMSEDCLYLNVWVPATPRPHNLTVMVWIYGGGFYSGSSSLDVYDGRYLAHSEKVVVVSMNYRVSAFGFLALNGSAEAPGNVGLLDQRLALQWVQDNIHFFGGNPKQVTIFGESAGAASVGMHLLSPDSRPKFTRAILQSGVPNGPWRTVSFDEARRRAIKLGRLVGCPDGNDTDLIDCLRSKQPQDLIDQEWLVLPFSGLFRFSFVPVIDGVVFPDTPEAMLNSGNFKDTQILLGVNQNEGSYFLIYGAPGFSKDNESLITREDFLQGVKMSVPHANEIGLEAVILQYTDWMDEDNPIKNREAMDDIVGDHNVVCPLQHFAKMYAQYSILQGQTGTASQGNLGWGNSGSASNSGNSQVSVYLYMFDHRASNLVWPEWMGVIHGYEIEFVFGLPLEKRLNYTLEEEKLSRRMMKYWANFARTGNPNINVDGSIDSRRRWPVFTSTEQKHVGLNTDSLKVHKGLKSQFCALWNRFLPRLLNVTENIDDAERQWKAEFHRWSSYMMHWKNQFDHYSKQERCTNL", "assay": "Enzyme kinetic analysis against AChE", "type": "biochemical", "settings": "for Ki: Dixon and Cornish–Bowden plots; for type of AChE inhibition: Lineweaver–Burk plots, ATCI 3.75–15.00 mM; for reversibility of AChE inhibition: initial velocity versus enzyme concentration, AChE 0.025–0.10 U/mL", "experimental": "[…]. Inhibition constants for AChE were determined from Dixon plot (1/Vi vs. (I)) and Cornish–Bowden transformation ((S)/Vi vs. (I))."}, "[1]": {"molecular_target": "T2, AChE (EC 3.1.1.7, from electric eel) (Electrophorus electricus, UniProt O42275)", "T2 construct": "purchased Sigma-Aldrich (St. Louis, MO, USA)", "T2 sequence (O42275 24-633)": "as above", "assay": "biochemical", "type": "biochemical", "settings": "for SI for AChE = IC50 BChE/IC50 AChE: selectivity index for AChE over BChE", "experimental": "(§1) A Waters Acquity UPLC Class I/Xevo G2Q-Tof mass spectrometer (Milford, MA, USA) was used to obtain the high-resolution ESI-MS (HR-ESI-MS) data. ^1H and ^13C NMR spectra were acquired on a Bruker Avance III 400 spectrometer spectrometer (Karlsruhe, Germany) with TMS as an internal standard. ^1H-^1H DQF-COSY, NOESY, TOCSY, HSQC and HMBC spectra were recorded using standard Bruker programs spectrometer (Topspin 3.5pl6, Karlsruhe, Germany). […] Thin layer chromatography (TLC) analysis was performed on alumina plates coated with silica gel 60 and silica gel 60 RP-18 F254 (Merck) spectrometer (Darmstadt, Germany). Chromatographic separation was performed on self-packed columns with silica gel (Anhui Liangchen Silicon Material Co. Ltd., China) and reversed-phase silica gel (ODS-A 12 nm S-50 μm YMC Co., Kyoto, Japan). AChE (EC 3.1.1.7, from electric eel), BChE (EC 3.1.1.8, from equine serum), 5,5′-dithiobis(2-nitrobenzoic acid) (DTNB), acetylthiocholine iodide (ATCI), and butyrylthiocholine iodide (BTCI) were purchased from Sigma-Aldrich (St. Louis, MO, USA).\n(§2) AChE (EC 3.1.1.7, from electric eel) and BChE (EC 3.1.1.8, from equine serum) were purchased from Sigma-Aldrich (St. Louis, MO, USA). […] After reaction for 15 min at 25 °C, 10 μL of 10 mM DTNB and 10 μL of 7.5 mM ATCI (BTCI) were added and then incubated for 40 min at 37 °C. […] Blank groups were set up by replacing the sample solution with 20 μL phosphate buffer (Ac). All tests were performed in triplicate."}, "[2]": {"assay": "Metal-binding studies (UV spectra)", "type": "physicochemical", "settings": "UV 200–400 nm, compound 20 μM, CuCl2, FeCl2, ZnCl2, AlCl3 20 μM, methanol, 30 min", "experimental": "The chelating studies were performed on an ultraviolet–visible spectrophotometry meter (HITACHI U-3900H, Tokyo, Japan). The UV absorption spectra of the test compound alone (20 μM, final concentration) or in the presence of CuCl2, FeCl2, ZnCl2 and AlCl3 (20 μM, final concentration) were recorded with the wavelength ranging from 200 to 400 nm after incubating for 30 min in methanol at room temperature."}, "[3]": {"molecular_target": "T3, peripheral anionic site (PAS) of AChE (Electrophorus electricus, UniProt O42275)", "T3 construct": "purchased Sigma-Aldrich (St. Louis, MO, USA)", "T3 sequence (O42275 24-633)": "as above", "type": "binding", "settings": "test compounds 100 μM, propidium iodide 1 μM, AChE 5U", "experimental": "The assay mixture of AChE (5U) was incubated with test compounds (final concentration 100 μM, 150 μL) for 6 h at 25 °C. After reaction, 50 μL Propidium iodide (1 μM) was added. […] The percentage of displacement was calculated by the following expression: 100 − (IFi/IF0 × 100), where IFi and IF0 are the fluorescence intensities with and without the test compounds, respectively."}, "[4]": {"molecular_target": "T4, BChE (EC 3.1.1.8, from equine serum) (Equus caballus, UniProt P81908)", "T4 construct": "purchased Sigma-Aldrich (St. Louis, MO, USA); host or cells: equine serum", "T4 sequence (P81908 whole entry)": "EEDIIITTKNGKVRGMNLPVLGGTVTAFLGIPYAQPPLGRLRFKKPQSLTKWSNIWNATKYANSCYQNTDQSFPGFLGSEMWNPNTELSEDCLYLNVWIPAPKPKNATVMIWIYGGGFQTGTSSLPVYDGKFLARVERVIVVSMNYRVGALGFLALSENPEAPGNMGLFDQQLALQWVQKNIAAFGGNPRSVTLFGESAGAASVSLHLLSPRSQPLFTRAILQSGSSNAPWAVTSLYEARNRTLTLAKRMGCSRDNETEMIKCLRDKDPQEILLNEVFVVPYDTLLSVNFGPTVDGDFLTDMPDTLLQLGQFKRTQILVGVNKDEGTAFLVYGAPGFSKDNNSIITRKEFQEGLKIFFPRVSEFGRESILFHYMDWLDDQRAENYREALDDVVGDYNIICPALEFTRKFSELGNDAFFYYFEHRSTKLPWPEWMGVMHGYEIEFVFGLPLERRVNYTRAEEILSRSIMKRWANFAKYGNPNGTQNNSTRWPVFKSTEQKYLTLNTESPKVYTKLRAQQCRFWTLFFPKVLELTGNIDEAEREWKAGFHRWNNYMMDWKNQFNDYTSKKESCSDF", "assay": "biochemical", "experimental": "as §1, §2"}, "[5]": {"settings": "means ± SD, at least three independent experiments, read-out: IC50 AChE"}, "[6]": {"settings": "means ± SD, at least three independent experiments, read-out: IC50 BChE"}}, "note": "Entries after “also recorded” stand apart in the source; their conditions may differ. Read-outs that look alike come from different tables or passages of the source.", "data": [{"compound": "N=C(N)NCCCCNC(=O)c1ccc(O)cc1", "note": "[Compound 1, N-(4-guanidinobutyl)-4-hydroxybenzamide]", "values": [{"measurement": "Ki", "setting": "AChE; read-out: inhibition constant Ki,c (competitive component)", "result": "2.64 ± 0.35", "unit": "µM"}, {"measurement": "Ki", "setting": "AChE; read-out: inhibition constant Ki,nc (non-competitive component)", "result": "5.66 ± 0.82", "unit": "µM"}, {"measurement": "type of AChE inhibition", "setting": "AChE", "result": "mixed type of inhibition"}, {"measurement": "reversibility of AChE inhibition", "setting": "AChE", "result": "reversible inhibitors"}, {"measurement": "reversibility of AChE inhibition", "setting": "AChE; listed as Buthutin A", "result": "reversible"}, {"measurement": "IC50", "setting": "[1]; [5]", "result": "7.83 ± 0.06", "unit": "µM"}, {"measurement": "SI for AChE = IC50 BChE/IC50 AChE", "setting": "[1]", "result": 6.05}, {"measurement": "metal binding ability toward Cu2+, Fe2+, Zn2+ and Al3+", "setting": "[2]", "result": "satisfactory biometal binding abilities; also recorded: potent metal binding ability; also recorded: satisfactory metal-binding properties"}, {"measurement": "Propidium Iodide Displacement", "setting": "[3]", "result": "18.29 ± 0.53", "unit": "%"}, {"measurement": "IC50", "setting": "[4]; [6]", "result": "47.4 ± 0.95", "unit": "µM"}]}, {"compound": "N=C(N)NCCCCNC(=O)c1ccccn1", "note": "[Compound 2, N-(4-guanidinobutyl)picolinamide]", "values": [{"measurement": "type of AChE inhibition", "setting": "AChE", "result": "mixed type of inhibition"}, {"measurement": "reversibility of AChE inhibition", "setting": "AChE", "result": "reversible inhibitors"}, {"measurement": "IC50", "setting": "[1]; [5]", "result": "61.4 ± 2.34", "unit": "µM"}, {"measurement": "SI for AChE = IC50 BChE/IC50 AChE", "setting": "[1]", "result": 1.99}, {"measurement": "Propidium Iodide Displacement", "setting": "[3]", "result": "17.95 ± 0.98", "unit": "%"}, {"measurement": "IC50", "setting": "[4]; [6]", "result": "123 ± 5.21", "unit": "µM"}]}, {"compound": "C[n+]1cccc(C(=O)[O-])c1", "note": "[Compound 3]", "values": [{"measurement": "IC50", "setting": "[1]", "result": "97.3 ± 4.18", "unit": "µM"}, {"measurement": "IC50 AChE", "setting": "[1]", "result": "weaker inhibitory effect"}, {"measurement": "metal binding ability toward Cu2+, Fe2+, Zn2+ and Al3+", "setting": "[2]", "result": "satisfactory biometal binding abilities; also recorded: potent metal binding ability; also recorded: satisfactory metal-binding properties"}, {"measurement": "IC50", "setting": "[4]", "result": "442 ± 7.99", "unit": "µM"}]}, {"compound": "CC(C)CCSS", "note": "[Compound 4, 3-methylbuthyl hydrodisulfide]", "values": [{"measurement": "IC50", "setting": "[1]; [5]", "result": "40.9 ± 3.21", "unit": "µM"}, {"measurement": "SI for AChE = IC50 BChE/IC50 AChE", "setting": "[1]", "result": 3.73}, {"measurement": "IC50", "setting": "[4]; [6]", "result": "153 ± 7.22", "unit": "µM"}]}]}
